Here are results for one compound from paper PMC4667271, “Discovery of a Novel Inhibitor of the Protein Tyrosine Phosphatase Shp2” (Scientific Reports, 2015).

The structures appear in SMILES notation. Changes are numbered by the printed parent chain.

Assay [1] has as its target T1, Shp2-Y279A (Homo sapiens, UniProt Q06124, Y279A).
T1 sequence (Q06124 1-593 Y279A): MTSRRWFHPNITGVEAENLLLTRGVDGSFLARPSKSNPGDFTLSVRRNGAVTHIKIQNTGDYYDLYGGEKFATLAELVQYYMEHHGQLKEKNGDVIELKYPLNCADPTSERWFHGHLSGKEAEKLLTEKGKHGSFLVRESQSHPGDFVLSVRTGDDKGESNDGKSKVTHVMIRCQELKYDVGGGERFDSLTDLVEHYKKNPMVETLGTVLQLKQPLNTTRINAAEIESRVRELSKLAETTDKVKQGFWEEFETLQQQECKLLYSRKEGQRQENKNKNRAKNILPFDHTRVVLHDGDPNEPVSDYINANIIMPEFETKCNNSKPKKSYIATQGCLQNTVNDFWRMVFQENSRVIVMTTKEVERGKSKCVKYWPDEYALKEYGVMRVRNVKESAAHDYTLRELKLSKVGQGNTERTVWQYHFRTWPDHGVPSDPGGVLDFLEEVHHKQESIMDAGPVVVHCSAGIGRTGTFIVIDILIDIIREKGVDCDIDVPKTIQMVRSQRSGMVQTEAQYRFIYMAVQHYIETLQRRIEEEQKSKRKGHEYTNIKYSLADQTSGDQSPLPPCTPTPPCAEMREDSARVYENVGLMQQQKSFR
In words: Surface plasmon resonance analysis, Shp2-Y279A. Type of assay: binding. On the procedure:
One small molecule (10 mM) was spotted on the 3D sensor chip. Positive and negative controls on the chip were monitored for binding kinetics to verify immobilization. All experiments were performed using Plexera’s Plex Array SPRi instrumentation, visualized using Instrument Control software (ICS) and analyzed using Plexera Data Explorer software.
Proteins were injected in the following order: Shp2 full-length protein (12 nM, 36 nM, 108 nM, 324 nM), Shp2 Y279A protein (35 nM, 70 nM,140 nM, 280 nM, 560 nM). Each protein was injected at a flow rate of 1 μl/sec. The association duration was 200 sec and dissociation duration was 300 sec. Regeneration between injections was performed with 600 μl of 10 mM glycine-HCl, pH = 2.0. The data were analyzed by Plexera Data Explorer software.

Assay [2] relates to ERK1/2 activation in HEK293T cells expressing H-RasV12. In words: RasV12-induced ERK1/2 activation in transfected HEK293T. It is filed as cell-based, human. The following applies: Fumos 20 μM or U0126 10 μM, 24 h. How it is done:
DMSO treatment as control. […] (c) Fumos inhibits EGF-induced Ras activation.
HEK293T, MDA-MB-231and HeLa cell lines were obtained from CRC/PUMC. Cell lines were maintained in Dulbecco’s modified Eagle’s medium supplemented with 10% fetal bovine serum. Transfections were performed in 6-well plates according to manufacturer (Invitrogen Lipofectamine LTX).Briefly, for transient transfection of HEK293T cells, subconfluent cells in 6-well plates were incubated with 2 ml of Dulbecco’s modified Eagle’s medium containing 2.5 μg of total DNA and 7.5 μl of each Lipofectamine and Plus reagent (Invitrogen) and then serum-starved in DMEM/0.1% bovine serum albumin for 18 h. After Fumos treatment for 24 h, cells were stimulated for 5 min with 20 ng/ml EGF.
(§1) After centrifugation, the supernatant was collected.

Assay [3] addresses T2, Shp2 (Homo sapiens, UniProt Q06124).
T2 sequence (Q06124 1-593): T1 sequence (Q06124 1-593 Y279A) with A279Y
Briefly: Kinetic analysis of Shp2 inhibition (Michaelis-Menten, Lineweaver-Burk). Type of assay: biochemical. How it is done: In order to determine the nature of the inhibition, the phosphtase activity of Shp2 was assessed in the presence of increasing concentrations of Fumos. […] Since irreversible inhibitors generally show similar variation trend with non-competitive inhibitors in Lineweaver-Burk plot, next we investigated if the inhibition of Shp2 by Fumos is reversible. Unlike an irreversible inhibitor, a reversible inhibitor can dissociate from the enzyme. […] inhibition can be completely reversed by adding more substrates so that it reaches a much higher concentration than that of the inhibitor[31][32]. After incubation of the mixture containing Fumos and Shp2, we added 40-fold of normal amount of substrates. Sodium orthovanadate, a commonly used competitive inhibitor for PTPs, was used as a control.
The assay was set in wells of 96-well plate with a final volume of 100 μl of reaction mixture containing 10 mM of NaAc-HAc, 1 mM of ethylene diamine tetraacetic acid, 1 mM of DL-dithiothreitol and 2% of dimethyl sulfoxide, pH 5.5. Activity of the enzyme was assayed by incubating recombinant PTP protein or mutant PTP with various concentrations of Fumos in the mixture at 37 °C for 30 min. Absorbance at 405 nm was detected immediately after addition of varied concentrations of substrate, p-nitrophenyl phosphate (pNPP) to each corresponding well.

Assay [4] concerns phosphorylation of AKT and GSK3β. Briefly: EGF-induced AKT activation, Western blot. It is filed as cell-based. The note with it: 10-40 μM for 24 h, EGF 20 ng/ml 5 min.
From the text: Figure 4 Fumos doesn’t inhibit EGF-induced AKT activation. Fumos doesn’t inhibit EGF-induced AKT activation. […] DMSO treatment as control. Western blotting analysis for p-AKT, AKT, p-GSK3β and GSK3β.
as §1
(A western blot detects proteins with antibodies after separation by electrophoresis.)

In assay [5] the test system is ERK1/2 phosphorylation in HEK293T cells. In words: EGF-induced ERK1/2 activation, Western blot, HEK293T. Type of assay: cell-based, human. The note with it: 10-40 μM for 24 h, EGF 20 ng/ml 5 min.
From the text: as §1

[6] abbreviates: SPR, Fumos immobilized, Shp2-Y279A injected.

Turning to `CC[C@@H](C)C[C@@H](C)/C=C(C)/C=C/C=C/C=C(\C)C(=O)c1c(O)c(-c2ccc(O)cc2)cn(O)c1=O` [Fumos, Fumosorinone], in assay [1] (SPR KD comparison), the “affinity of Shp2-Y279A relative to Shp2-WT” value is “nine-fold less affinity”. In assay [1] (setting [6]), the “Ka (association rate)” value is given as 5.06 × 10^4 M^−1 S^−1, binding was put at a Kd of 368 nM and the “Kd (dissociation rate)” value is on record as 1.86 × 10^−2 S^−1. In addition, the “RasV12-induced ERK1/2 activation” value in assay [2] is “did not inhibit”. Besides, the Vmax in assay [3] (4 μM fumosorinone, substrate pNPP) turned out to be 7.63 ± 0.42 S^−1. In assay [3] (8 μM fumosorinone, substrate pNPP), the Vmax is listed as 2.73 ± 0.41 S^−1. In addition, the type of inhibition result in assay [3] (Lineweaver-Burk analysis) is “classic noncompetitive inhibitor”. For the same compound, in assay [3] (substrate pNPP, fit over 0, 4 and 8 μM fumosorinone), the Km (usually the substrate concentration at which the rate is half of its maximum) amounted to 6.75 ± 0.84 mM. In assay [4], the “EGF-induced phosphorylation of AKT” value was “did not inhibit” and the “EGF-induced phosphorylation of GSK3β” value was “did not inhibit”. Further, the “EGF-induced ERK1/2 phosphorylation” value in assay [5] is listed as “drastically decreased”.
